This note sets out measurements from patent US6492330B1, “Antiangiogenic drugs” (National Institute of Immunology, priority 1996, dated 2002).

Positions of bridges follow the written chain, without caps; N, C: chain ends. Non-standard residues stand in square brackets, D forms with d. No end group written: not given here. Deg = CCC(N)(CC)C(=O)O; Aib = CC(C)(N)C(=O)O

Holding throughout (format): cell-based
One experiment concerns ECV.304 cells. Description: MTT assay, inhibition of proliferation of endothelial cells ECV.304. The settings on record: 72 hours (Table 2). On the procedure: 150 μl of medium was added to the wells of a 96-well tissue culture plate (Nunc, Denmark) followed by 30 μl of cell suspension. The plate was left in incubator (37° C., 5% CO2) overnight. Each of the seven peptides of the combination MuJ-7 were added at three molar concentrations of 10^−7M, 10^−8M and 10^−9M. 20 μl of MuJ-7 at three concentrations of N/10, N and 10N was added to marked wells of the 96-well plate. The value of N for each of the individual peptides was 10^−8M for VIP2, BOM1, SP1, VIP3, and SOM2 and 10^−7M for VIP1, and 10^−9M for SOM1. Each concentration was plated in triplicate. 20 μl of medium alone was added to control wells while wells without cells served as blanks. A total volume of 200 μl was ensured in each well and the plate was left in an incubator (37° C., 5% CO2). After 72 hours of incubation an MTT assay was performed and percentage inhibition in proliferation of treated cells was calculated with respect to control cells.
150 μl of medium was added to the wells of a 96-well tissue culture plate (Nunc, Denmark) followed by 30 μl of cell suspension. The plate was left in incubator (37° C., 5% CO2) overnight. Novel peptides shown below were incubated with cells at concentration range of 10^−7 to 10^−9 M (except DT71 at concentration range 10^−8 to 10^−10 M). Each concentration was plated in triplicates. 20 μl of medium alone was added to control wells while wells without cells served as blanks. A total volume of 200 μl was ensured in each well and plate was left in incubator (37° C., 5% CO2). After 72 hours of incubation an MTT assay was performed and percentage inhibition in proliferation of treated cells was calculated with respect to control cells.

The test system of experiment [1] is endothelial cells ECV.304. As to the kind of experiment: Migration assay across 8 μm polycarbonate filter transwell inserts. The settings on record: analog at optimum concentration −8M, 24 hours (Table 4). How it is done: Polycarbonate filter transwell inserts (24 well size) with 8 μm pores (Nunc, Denmark) were used for the migration assay. ECV304 (10^4 cells/200 ul DMEM containing 0.1% BSA) was added to the upper chamber. The lower chamber contained 600 ul of DMEM with 0.1% BSA. Individual peptides of the composition MuJ-7 at six different concentrations each of N/100, N/10, N, 10N, 100N and 1000N were added directly to the upper well and the plate incubated at 37° C. for 24 hours. The cells migrated to the lower chamber were viewed randomly at five different phase-contrast microscopic fields and the total number of cells counted using Video Pro 32 Image Analysis system. Percent inhibition in migration was determined with reference to the Control. Similarly, […] different concentrations of N/100, N/10, N, 10N, 100N and 1000N of MuJ-7 were added directly to the upper well and the plate incubated at 37° C. for 24 hours. The cells migrated to the lower chamber were counted as described above.
Polycarbonate filter trasnwell inserts (24 well size) with 8 μm pores (Nuno, Denmark) were used for the migration assay. ECV304 (10^4 cells/200 ul DMEM containing 0.1% BSA) was added to the upper chamber. The lower chamber contained 600 ul of DMEM with 0.1% BSA. […] The sequence of each of the peptides added are described above. The cells migrated to the lower chamber were viewed randomly at five different phase-contrast microscopic fields and the total number of cells counted using Video Pro 32 Image Analysis system. Percent inhibition in migration was determined with reference to Control. […]

A further experiment has as its system ECV304. As to the kind of experiment: Tube-like-structure (TLS) formation on Matrigel. Particulars: peptide −8M, 24 hours. How it is done:
Matrigel (350 ul) was placed into each well of a 24-well culture plate at 4° C. and was allowed to polymerize by incubation at 37° C. for 30 min. ECV304 (1.5×10^4) were seeded on the Matrigel in 500 ul DMEM supplemented with 10% FBS. MuJ-7 at four different concentrations of 0.25×, 0.5×, ×, & 5.0× were added and. the plate incubated at 37° C. for 24 hour. “×” denotes normal concentration of MuJ-7 where molar concentration of individual peptides was 10^−8 M for VIP2, BOM1, SP1, VIP3 and SOM2 and 10^−7 M for VIP1 and 10^−9 M for SOM1. […] Percent inhibition in tube area was determined with reference to untreated cells.
Matrigel (350 ul) was placed into each well of a 24-well culture plate at 4° C. and was allowed to polymerize by incubation at 37° C. for 30 min. ECV304 (1.5×10^4) were seeded on the Matrigel in 500 ul DMEM supplemented with 10% FBS. […] Percent inhibition in tube length was determined with reference to untreated cells.
Matrigel (350 ul) was placed into each well of a 24-well culture plate at 4° C. and was allowed to polymerize by incubation at 37° C. for 30 min. ECV304 (1.5×10^4) were seeded on the Matrigel in 500 ul DMEM supplemented with 10% FBS. Individual peptides of the composition MuJ-7 at three different concentrations each of N/10, N, and 10N were added and the plate incubated at 37° C. for 24 hours. […] Percent inhibition in tube length was determined with reference to Control. Similarly, three different concentrations of N/10, N, and 10N of MuJ-7 were added to the well and the plate incubated at 37° C. for 24 hours. Percent inhibition in tube length was determined with reference to Control as described previously (Table 10).

Take “Leu-Met-Tyr-Pro-Thr-D-Tyr-Leu-Lys-OH (LMYPT[dY]LK-OH; N-terminus assumed; SMILES CSCC[C@H](NC(=O)[C@@H](N)CC(C)C)C(=O)N[C@@H](Cc1ccc(O)cc1)C(=O)N1CCC[C@H]1C(=O)N[C@H](C(=O)N[C@H](Cc1ccc(O)cc1)C(=O)N[C@@H](CC(C)C)C(=O)N[C@@H](CCCCN)C(=O)O)[C@@H](C)O) [DT-13]”: the “PERCENT INHIBITION OF PROLIFERATION” value in the experiment with ECV.304 cells (ECV304, 10^−7M) amounted to 22.6%; with ECV.304 cells (ECV304, 10^−8M), 20.3%; with ECV.304 cells (ECV304, 10^−9M), 18.4%. Also, the “PERCENT INHIBITION MIGRATION” value in experiment [1] amounted to 89.7%. Further, the “INHIBITION OF TUBE LENGTH” value in the experiment on ECV304 stood at 16.2%.
Take “Ala-Aib-Cys-Lys-Asn-Phe-Phe-D-Trp-Lys-Thr-Phe-Thr-Ser-Cys (3-14 Disulphide bond) (A[Aib]CKNFF[dW]KTFTSC; disulfide 3-14) [DT-62A]”: the “PERCENT INHIBITION OF PROLIFERATION” value in the experiment with ECV.304 cells (ECV304, 10^−7M) is given as 11.7%; in the experiment with ECV.304 cells (ECV304, 10^−8M), 20.1%; in the experiment on ECV.304 cells (ECV304, 10^−9M) it was 25.7%. Also, in experiment [1], the “PERCENT INHIBITION MIGRATION” value was 62.2%. Besides, in the experiment with ECV304, the “INHIBITION OF TUBE LENGTH” value amounted to 44.1%.
“Ala-Aib-Cys-Lys-Asn-Phe-Phe-D-Trp-Lys-Thr-Phe-Thr-Ser-Cys (A[Aib]CKNFF[dW]KTFTSC; ends and bridges not checked) [DT-62B]”: the “PERCENT INHIBITION OF PROLIFERATION” value in the experiment on ECV.304 cells (ECV304, 10^−7M) worked out at 14.0%; in the experiment on ECV.304 cells (ECV304, 10^−8M), 3.8%; in the experiment with ECV.304 cells (ECV304, 10^−9M), 12.8%. Further, in experiment [1], the “PERCENT INHIBITION MIGRATION” value worked out at 8.5%. The “INHIBITION OF TUBE LENGTH” value in the experiment on ECV304 turned out to be 0%.
Taken in the same sequence, the figures for “Aib-Met-Gln-Trp-Phe-Aib-NH2 ([Aib]MQWF[Aib]-NH2; N-terminus assumed; SMILES CSCC[C@H](NC(=O)C(C)(C)N)C(=O)N[C@@H](CCC(N)=O)C(=O)N[C@@H](Cc1c[nH]c2ccccc12)C(=O)N[C@@H](Cc1ccccc1)C(=O)NC(C)(C)C(N)=O) [DT-31]” were 1.3%, 14.1%, 6.1%, 0% and 17.1%.
For [dF]QWAV[Aib]HI-NH2 [DT-27], the “PERCENT INHIBITION OF PROLIFERATION” value was determined as 14.3% in the experiment with ECV.304 cells (ECV304, 10^−7M); 11.9% with ECV.304 cells (ECV304, 10^−8M); 6.7% with ECV.304 cells (ECV304, 10^−9M). Besides, in experiment [1], the “PERCENT INHIBITION MIGRATION” value amounted to 0%. In the experiment on ECV304, the “INHIBITION OF TUBE LENGTH” value is listed as 29.7%.
Turning to “D-Leu-Met-Tyr-Pro-Thr-Tyr-Deg-Lys-OH ([dL]MYPTY[Deg]K-OH; N-terminus assumed; SMILES CCC(CC)(NC(=O)[C@H](Cc1ccc(O)cc1)NC(=O)[C@@H](NC(=O)[C@@H]1CCCN1C(=O)[C@H](Cc1ccc(O)cc1)NC(=O)[C@H](CCSC)NC(=O)[C@H](N)CC(C)C)[C@@H](C)O)C(=O)N[C@@H](CCCCN)C(=O)O) [DT-19]”, the “PERCENT INHIBITION OF PROLIFERATION” value with ECV.304 cells (ECV304, 10^−7M) amounted to 11.9%; in the experiment on ECV.304 cells (ECV304, 10^−8M), 7.3%; in the experiment with ECV.304 cells (ECV304, 10^−9M), 21.0%. The “PERCENT INHIBITION MIGRATION” value in experiment [1] was found to be 80.4%. For the same substance, the “INHIBITION OF TUBE LENGTH” value in the experiment on ECV304 worked out at 37.8%.
On to [dF]QWAV[Aib]HL-NH2 [DT-24], for which the “PERCENT INHIBITION OF PROLIFERATION” value in the experiment with ECV.304 cells (ECV304, 10^−7M) was determined as 6.4%; in the experiment on ECV.304 cells (ECV304, 10^−8M) it was 9.8%; in the experiment on ECV.304 cells (ECV304, 10^−9M) it was 10.7%. The “PERCENT INHIBITION MIGRATION” value in experiment [1] worked out at 0%. For the same substance, in the experiment with ECV304, the “INHIBITION OF TUBE LENGTH” value came to 16.2%.
With “Leu-Met-Tyr-Pro-Thr-Tyr-D-Leu-Lys-OH (LMYPTY[dL]K-OH; N-terminus assumed; SMILES CSCC[C@H](NC(=O)[C@@H](N)CC(C)C)C(=O)N[C@@H](Cc1ccc(O)cc1)C(=O)N1CCC[C@H]1C(=O)N[C@H](C(=O)N[C@@H](Cc1ccc(O)cc1)C(=O)N[C@H](CC(C)C)C(=O)N[C@@H](CCCCN)C(=O)O)[C@@H](C)O) [DT-14]”, the “PERCENT INHIBITION OF PROLIFERATION” value is 17.0% with ECV.304 cells (ECV304, 10^−7M); 6.0% in the experiment with ECV.304 cells (ECV304, 10^−8M); 20.5% in the experiment with ECV.304 cells (ECV304, 10^−9M). Moreover, the “PERCENT INHIBITION MIGRATION” value in experiment [1] came to 77.3%. In addition, the “INHIBITION OF TUBE LENGTH” value in the experiment on ECV304 is 24.3%.
For “D-Phe-Gln-Trp-Aib-Val-Gly-His-Ile-NH2 ([dF]QW[Aib]VGHI-NH2; N-terminus assumed; SMILES CC[C@H](C)[C@H](NC(=O)[C@H](Cc1c[nH]cn1)NC(=O)CNC(=O)[C@@H](NC(=O)C(C)(C)NC(=O)[C@H](Cc1c[nH]c2ccccc12)NC(=O)[C@H](CCC(N)=O)NC(=O)[C@H](N)Cc1ccccc1)C(C)C)C(N)=O) [DT-26]”, in that order: 0%, 0%, 0%, 0% and 0%.
As to “D-Leu-Met-Tyr-Pro-Thr-Tyr-D-Leu-Lys-OH ([dL]MYPTY[dL]K-OH; N-terminus assumed; SMILES CSCC[C@H](NC(=O)[C@H](N)CC(C)C)C(=O)N[C@@H](Cc1ccc(O)cc1)C(=O)N1CCC[C@H]1C(=O)N[C@H](C(=O)N[C@@H](Cc1ccc(O)cc1)C(=O)N[C@H](CC(C)C)C(=O)N[C@@H](CCCCN)C(=O)O)[C@@H](C)O) [DT-16]”, the “PERCENT INHIBITION OF PROLIFERATION” value in the experiment on ECV.304 cells (ECV304, 10^−7M) worked out at 24.0%; in the experiment on ECV.304 cells (ECV304, 10^−8M), 24.7%; in the experiment with ECV.304 cells (ECV304, 10^−9M), 37.9%. Moreover, the “PERCENT INHIBITION MIGRATION” value in experiment [1] stood at 90.07%. In the experiment with ECV304, the “INHIBITION OF TUBE LENGTH” value was found to be 18.9%.
Taken in the same sequence, the figures for “Aib-Met-Tyr-Pro-Thr-Tyr-Deg-Lys-OH ([Aib]MYPTY[Deg]K-OH; N-terminus assumed; SMILES CCC(CC)(NC(=O)[C@H](Cc1ccc(O)cc1)NC(=O)[C@@H](NC(=O)[C@@H]1CCCN1C(=O)[C@H](Cc1ccc(O)cc1)NC(=O)[C@H](CCSC)NC(=O)C(C)(C)N)[C@@H](C)O)C(=O)N[C@@H](CCCCN)C(=O)O) [DT-18]” were 23.3%, 10.9%, 14.4%, 73.2% and 0%.
